What was measured:
[1] = biological target: Acetylcholinesterase (Electrophorus electricus, UniProt O42275)
[2] = biological target: Cholinesterase (Equus caballus, UniProt P81908)
Description: Inhibition of horse serum BuChE by Ellman's method

[3] = biological target: Acetylcholinesterase (Homo sapiens, UniProt P22303)
Acetylcholinesterase (Homo sapiens, UniProt P22303), sequence (P22303 whole entry): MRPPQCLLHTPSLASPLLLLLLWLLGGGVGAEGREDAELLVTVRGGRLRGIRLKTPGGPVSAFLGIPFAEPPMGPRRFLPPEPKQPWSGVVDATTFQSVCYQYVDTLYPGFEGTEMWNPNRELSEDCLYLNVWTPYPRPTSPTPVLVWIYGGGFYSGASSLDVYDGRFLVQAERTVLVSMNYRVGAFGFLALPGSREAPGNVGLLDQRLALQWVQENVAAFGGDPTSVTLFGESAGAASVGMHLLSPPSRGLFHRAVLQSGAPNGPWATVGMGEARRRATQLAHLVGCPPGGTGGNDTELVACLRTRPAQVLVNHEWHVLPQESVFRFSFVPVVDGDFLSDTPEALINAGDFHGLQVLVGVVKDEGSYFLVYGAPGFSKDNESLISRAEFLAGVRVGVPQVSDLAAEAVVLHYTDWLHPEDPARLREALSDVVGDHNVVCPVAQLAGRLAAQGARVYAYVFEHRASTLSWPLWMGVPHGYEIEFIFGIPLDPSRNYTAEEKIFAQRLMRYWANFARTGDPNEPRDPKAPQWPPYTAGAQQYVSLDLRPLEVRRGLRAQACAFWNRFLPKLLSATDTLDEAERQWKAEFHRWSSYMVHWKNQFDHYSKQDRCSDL
Description: Inhibition of human AChE by Ellman's assay

Cholinesterase, sequence (P81908 whole entry): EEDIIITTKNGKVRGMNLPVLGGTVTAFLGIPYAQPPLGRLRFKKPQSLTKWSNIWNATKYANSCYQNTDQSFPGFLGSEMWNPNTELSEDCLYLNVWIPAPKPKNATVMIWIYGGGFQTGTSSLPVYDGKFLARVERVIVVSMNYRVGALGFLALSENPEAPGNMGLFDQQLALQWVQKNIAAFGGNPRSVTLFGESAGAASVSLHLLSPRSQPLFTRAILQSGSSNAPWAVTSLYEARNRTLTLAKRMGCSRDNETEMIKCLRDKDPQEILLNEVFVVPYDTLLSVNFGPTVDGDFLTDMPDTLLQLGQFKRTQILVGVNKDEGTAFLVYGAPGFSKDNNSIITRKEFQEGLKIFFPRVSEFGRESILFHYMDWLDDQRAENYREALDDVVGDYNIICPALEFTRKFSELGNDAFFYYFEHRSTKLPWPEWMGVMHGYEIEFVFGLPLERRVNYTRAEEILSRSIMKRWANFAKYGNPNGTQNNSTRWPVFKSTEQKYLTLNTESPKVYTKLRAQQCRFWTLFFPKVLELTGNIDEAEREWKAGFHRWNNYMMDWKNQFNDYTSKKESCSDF
Acetylcholinesterase (Electrophorus electricus, UniProt O42275), sequence (O42275 whole entry): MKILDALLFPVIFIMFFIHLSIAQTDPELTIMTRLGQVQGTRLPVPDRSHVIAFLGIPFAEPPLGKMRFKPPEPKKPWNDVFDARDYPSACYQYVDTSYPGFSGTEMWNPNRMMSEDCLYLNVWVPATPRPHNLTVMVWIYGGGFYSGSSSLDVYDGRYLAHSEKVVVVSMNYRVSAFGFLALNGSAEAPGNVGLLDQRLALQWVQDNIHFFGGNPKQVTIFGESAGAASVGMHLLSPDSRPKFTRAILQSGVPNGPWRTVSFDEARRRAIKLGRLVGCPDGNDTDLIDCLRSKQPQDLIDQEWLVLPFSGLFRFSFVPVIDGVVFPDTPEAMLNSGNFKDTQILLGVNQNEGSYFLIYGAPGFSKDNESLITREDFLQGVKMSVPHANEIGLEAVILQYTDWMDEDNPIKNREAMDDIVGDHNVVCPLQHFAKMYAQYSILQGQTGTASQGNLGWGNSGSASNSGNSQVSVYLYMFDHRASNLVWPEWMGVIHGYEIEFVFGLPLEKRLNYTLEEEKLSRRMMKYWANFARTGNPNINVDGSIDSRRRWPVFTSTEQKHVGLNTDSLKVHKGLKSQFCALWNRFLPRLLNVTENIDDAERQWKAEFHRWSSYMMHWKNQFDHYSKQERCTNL

SMILES	IC50 [1]	IC50 [2]	IC50 [3]
COc1c(O)cc2c3c1-c1ccccc1C[C@H]3NCC2 [(-)-ASIMILOBINE]	> 100 µM	> 100 µM	> 100 µM
COc1ccc2c(=O)oc3c(OC)cc(CCN(C)C)c4c(=O)oc1c2c34 [TASPINE]	0.33 µM	> 100 µM	0.54 µM

— ChEMBL document CHEMBL1158060, “Taspine: bioactivity-guided isolation and molecular ligand-target insight of a potent acetylcholinesterase inhibitor from Magnolia x soulangiana” (J Nat Prod, 2006)
